Measurements: patent publication US20070104644A1, “Inhibitor imaging agents” (priority 2003, published 2007)
Each block holds one compound with its values, some of them ahead of it. Numbered stars: 1 amine (or outer) side, 2 acyl side, 3 side chain; on linkers, the order of the positions; unused ones are H or OH. Square brackets hold non-standard residues; d marks the D form. Peptide text beside a SMILES is read from it. * marks the point of attachment. Tyr(3-I) = N[C@@H](Cc1ccc(O)c(I)c1)C(=O)O; X2 = O=C(NO)C1(N(CCC(=O)[*:2])[*:1])CCCC1; X1 = O=S(=O)(c1ccc(Oc2ccc(F)cc2)cc1)*

How the values were obtained:
MMP-9 = MMP-9 (Homo sapiens, UniProt P14780); experiment: MMP-9 colorimetric assay kit (Biomol AK-410); assay type: biochemical
Method: (§1) Compounds were screened using the following commercially available Biomol assay kits: • MMP-1 colorimetric assay kit—Catalogue number AK-404, • MMP-2 colorimetric assay kit—Catalogue number AK-408, • MMP-8 calorimetric assay kit—Catalogue number AK-414, • MMP-9 calorimetric assay kit—Catalogue number AK-410, • MMP-12 colorimetric assay kit—Catalogue number AK-402, Which are available from Affiniti Research Products Ltd. (Palatine House, Matford Court, Exeter, EX2 8NL, UK).
(§2) Inhibitors were provided in powdered form, and stored at 4° C. For each inhibitor a 1 mM stock solution in DMSO was prepared, dispensed into 20 μl aliquots and these aliquots stored at −20° C. The stock solution was diluted to give 8 inhibitor concentrations (recommended: 50 μM, 5 μM, 500 nM, 50 nM, 5 nM, 500 pM, 50 pM and 5 pM). Dilutions were made in the kit assay buffer. A five-fold dilution of the inhibitor stocks is made on addition to the assay wells, therefore final concentration range was from 10 μM to 1 pM.
(§3) Details are provided with the commercial kit, but can be summarised as follows: • Prepare test compound dilutions as above, • Add assay buffer to plate, • Add test compounds to plate • Prepare standard kit inhibitor NNGH (see kit for dilution factor) • Add NNGH to control inhibitor wells • Prepare MMP enzyme (see kit for dilution factor) • Add MMP to plate • Incubate plate at 37° C. for ˜15 min • Prepare thiopeptolide substrate (see kit for dilution factor) • Add substrate to plate • Count every 2 min for 1 hr, 37° C., 414 nm on a Labsystems iEMS plate reader (for MMP-1 count every 30 seconds for 20 minutes).

MMP-2 = biological target: T1, MMP-2 (Homo sapiens, UniProt P08253); experiment: MMP-2 colorimetric assay kit (Biomol AK-408); assay type: biochemical
T1 sequence (P08253 110-660): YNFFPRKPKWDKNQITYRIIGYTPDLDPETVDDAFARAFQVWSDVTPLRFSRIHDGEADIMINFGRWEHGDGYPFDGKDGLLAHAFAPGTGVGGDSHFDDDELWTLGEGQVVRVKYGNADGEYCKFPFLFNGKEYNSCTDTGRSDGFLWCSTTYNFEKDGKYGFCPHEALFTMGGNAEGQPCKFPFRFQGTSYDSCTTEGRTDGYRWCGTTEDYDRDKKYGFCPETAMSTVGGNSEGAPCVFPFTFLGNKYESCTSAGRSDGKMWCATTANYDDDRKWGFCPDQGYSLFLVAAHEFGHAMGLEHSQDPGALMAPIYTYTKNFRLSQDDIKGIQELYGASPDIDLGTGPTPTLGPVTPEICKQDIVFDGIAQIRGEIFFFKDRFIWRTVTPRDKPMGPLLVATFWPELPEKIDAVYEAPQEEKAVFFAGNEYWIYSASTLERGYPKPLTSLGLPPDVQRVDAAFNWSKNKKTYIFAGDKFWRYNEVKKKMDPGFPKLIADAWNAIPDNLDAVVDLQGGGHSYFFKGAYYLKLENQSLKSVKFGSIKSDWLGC
Method: as §1, §2, §3

[1] = test system: ApoE −/− mice, carotid artery; experiment: Biodistribution in ApoE ligation model of atherosclerosis (ligated and sham); assay type: in vivo
Text: ApoE −/− mice are transgenic knock-out mice, which lack the ApoE gene, and are therefore unable to regulate their plasma cholesterol levels. As a consequence ApoE mice develop atherosclerotic lesions, a process which is accelerated with feeding of high fat diet. Further acceleration of lesion development can be achieved by ligating the carotid artery, resulting in advanced lesion formation within 4 weeks of surgery and high fat diet feeding.
Two controls have been used for these experiments: (1) ApoE sham animals in which the mice undergo the same surgical intervention but the sture is only passed beneath the carotid and then removed and, (2) C57BL/6 ligtaed animals which undergo the same surgical ligation and high fat feeding as the ApoE ligated mice. Literature reports have stated that these animals do have some level of tissue remodelling, but with lower active MMP levels [Ivan et al, Circulation, 105, 2686-2691 (2002)].

[2] = test system: Lewis lung carcinoma (LLC) tumour; experiment: Biodistribution in LLC tumour model in vivo; design: species or system C57BL/6 mice
Method: 1×10^6 Lewis lung carcinoma (LLC) cells are injected subcutaneously into right inner thigh of C57BL/6 mice. Tumours were allowed to grow for 15 days prior to biodistribution being carried out.
Biodistribution studies were performed in the LLC tumour model.
Biodistribution was performed in the LLC tumour model of Example 23 with Compounds 46B and 48B.

MMP-8 = MMP-8 (Homo sapiens, UniProt P22894); experiment: MMP-8 colorimetric assay kit (Biomol AK-414); assay type: biochemical
Method: as §1, §2, §3

MMP-1 = biological target: T2, MMP-1 (Homo sapiens, UniProt P03956); experiment: MMP-1 colorimetric assay kit (Biomol AK-404); assay type: biochemical
T2 sequence (P03956 100-469): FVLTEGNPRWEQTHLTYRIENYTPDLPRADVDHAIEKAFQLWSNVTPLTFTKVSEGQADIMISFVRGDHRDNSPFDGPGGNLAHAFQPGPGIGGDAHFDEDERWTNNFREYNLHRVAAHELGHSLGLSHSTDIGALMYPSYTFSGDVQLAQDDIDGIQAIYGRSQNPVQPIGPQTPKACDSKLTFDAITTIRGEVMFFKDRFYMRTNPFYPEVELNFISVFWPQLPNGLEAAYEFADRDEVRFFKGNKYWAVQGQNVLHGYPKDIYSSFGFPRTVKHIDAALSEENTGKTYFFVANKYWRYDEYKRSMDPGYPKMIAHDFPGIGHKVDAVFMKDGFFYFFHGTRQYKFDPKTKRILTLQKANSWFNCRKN
Method: as §1, §2, §3

[3] = ApoE Ligated, 5 min post injection
[4] = ApoE Ligated, 60 min post injection
[5] = ApoE Sham, 60 min post injection

Sequence of MMP-9 (P14780 94-707): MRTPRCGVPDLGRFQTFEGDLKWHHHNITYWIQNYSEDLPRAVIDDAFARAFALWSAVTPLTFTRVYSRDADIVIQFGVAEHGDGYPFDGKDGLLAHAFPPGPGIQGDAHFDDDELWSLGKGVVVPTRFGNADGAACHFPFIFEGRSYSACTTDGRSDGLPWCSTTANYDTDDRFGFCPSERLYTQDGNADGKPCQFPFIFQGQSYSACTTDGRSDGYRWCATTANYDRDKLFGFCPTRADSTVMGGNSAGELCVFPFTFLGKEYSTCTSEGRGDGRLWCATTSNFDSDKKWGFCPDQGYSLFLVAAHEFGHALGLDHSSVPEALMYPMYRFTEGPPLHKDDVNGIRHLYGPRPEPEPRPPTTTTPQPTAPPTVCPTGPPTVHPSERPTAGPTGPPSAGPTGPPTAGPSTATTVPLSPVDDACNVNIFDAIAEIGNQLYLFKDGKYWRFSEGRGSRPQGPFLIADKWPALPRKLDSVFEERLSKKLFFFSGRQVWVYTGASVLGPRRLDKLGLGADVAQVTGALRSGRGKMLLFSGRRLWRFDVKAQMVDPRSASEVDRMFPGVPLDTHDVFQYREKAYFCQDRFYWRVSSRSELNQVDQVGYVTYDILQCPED
Sequence of MMP-8 (P22894 101-467): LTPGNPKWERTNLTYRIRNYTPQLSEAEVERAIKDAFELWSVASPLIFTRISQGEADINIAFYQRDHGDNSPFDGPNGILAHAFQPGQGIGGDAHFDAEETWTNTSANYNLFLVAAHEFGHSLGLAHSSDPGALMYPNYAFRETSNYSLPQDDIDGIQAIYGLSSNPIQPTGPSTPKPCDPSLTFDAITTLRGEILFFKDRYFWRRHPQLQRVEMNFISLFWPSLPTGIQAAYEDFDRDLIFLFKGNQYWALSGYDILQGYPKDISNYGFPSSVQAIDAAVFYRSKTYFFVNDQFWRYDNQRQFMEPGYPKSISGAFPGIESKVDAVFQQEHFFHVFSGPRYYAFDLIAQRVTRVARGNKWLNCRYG

Ki (MMP-9): 0.076 nM
Ki (MMP-2): 0.25 nM
SMILES: NC(=O)[C@H](Cc1ccc(O)c(I)c1)NC(=O)CCOCCOCCOCCOCCOCCOCCOCCOCCOCCOCCOCCNC(=O)CCN(C1(C(=O)NO)CCCC1)S(=O)(=O)c1ccc(Oc2ccc(F)cc2)cc1 [Compound 44]

% ID/G Carotid, mean [1, 3]: 10.32 % ID/G
Carotid/Blood, mean [1, 3]: 0.46
Carotid/Heart, mean [1, 3]: 1.39
Carotid/Lung, mean [1, 3]: 1.01
% ID/G Carotid, mean [1, 4]: 10.85 % ID/G
Carotid/Blood, mean [1, 4]: 1.21
Carotid/Heart, mean [1, 4]: 3.94
Carotid/Lung, mean [1, 4]: 1.45
% ID/G Carotid, mean [1, 5]: 2.91 % ID/G
Carotid/Blood, mean [1, 5]: 0.69
Carotid/Heart, mean [1, 5]: 1.28
Carotid/Lung, mean [1, 5]: 0.70
GI excretion [2]: low GI excretion
Urinary excretion [2]: High urinary excretion
% ID Urinary (urinary excretion), mean ([2]; 5 min post injection): 9.82 % ID
% ID/g Tumour, mean ([2]; 5 min post injection): 2.58 % ID/g
Tumour/Blood, mean ([2]; 5 min post injection): 0.16
Tumour/Heart, mean ([2]; 5 min post injection): 0.48
Tumour/Lung, mean ([2]; 5 min post injection): 0.30
Tumour/Muscle, mean ([2]; 5 min post injection): 1.66
% ID Urinary (urinary excretion), mean ([2]; 30 min post injection): 35.20 % ID
% ID/g Tumour, mean ([2]; 30 min post injection): 2.67 % ID/g
Tumour/Blood, mean ([2]; 30 min post injection): 0.26
Tumour/Heart, mean ([2]; 30 min post injection): 0.75
Tumour/Lung, mean ([2]; 30 min post injection): 0.43
Tumour/Muscle, mean ([2]; 30 min post injection): 2.80
% ID Urinary (urinary excretion), mean ([2]; 60 min post injection): 54.06 % ID
% ID/g Tumour, mean ([2]; 60 min post injection): 2.03 % ID/g
Tumour/Blood, mean ([2]; 60 min post injection): 0.43
Tumour/Heart, mean ([2]; 60 min post injection): 1.31
Tumour/Lung, mean ([2]; 60 min post injection): 0.69
Tumour/Muscle, mean ([2]; 60 min post injection): 4.88
% ID Urinary (urinary excretion), mean ([2]; 120 min post injection): 64.10 % ID
% ID/g Tumour, mean ([2]; 120 min post injection): 1.34 % ID/g
Tumour/Blood, mean ([2]; 120 min post injection): 0.53
Tumour/Heart, mean ([2]; 120 min post injection): 1.54
Tumour/Lung, mean ([2]; 120 min post injection): 0.55
Tumour/Muscle, mean ([2]; 120 min post injection): 3.92
SMILES: NC(=O)[C@H](Cc1ccc(O)c([123I])c1)NC(=O)CCOCCOCCOCCOCCOCCOCCOCCOCCOCCOCCOCCNC(=O)CCOCCOCCOCCOCCOCCOCCOCCOCCOCCOCCOCCNC(=O)CCN(C1(C(=O)NO)CCCC1)S(=O)(=O)c1ccc(Oc2ccc(F)cc2)cc1 [Compound 32A]
Blood clearance / retention [2]: high initial blood retention, which cleared with time
Tumour uptake and retention [2]: Good tumour uptake and retention were seen up to 1 hour post injection

Ki (MMP-8): 0.87 nM
Ki (MMP-1): 195 nM
Ki (MMP-9): 0.82 nM
Ki (MMP-2): 1.15 nM
SMILES: NC(=O)[C@H](Cc1ccc(O)c(I)c1)NC(=O)[C@H](CCC(=O)O)NC(=O)[C@H](CCC(=O)O)NC(=O)[C@H](CCC(=O)O)NC(=O)[C@H](CCC(=O)O)NC(=O)[C@H](CCC(=O)O)NC(=O)CCN(C1(C(=O)NO)CCCC1)S(=O)(=O)c1ccc(Oc2ccc(F)cc2)cc1 [Compound 21] (X1-[X2]EEEEE[Tyr(3-I)]-NH2)

SMILES: NC(=O)[C@H](CCCCNC(=O)CON=Cc1ccc([18F])cc1)NC(=O)CCN(C1(C(=O)NO)CCCC1)S(=O)(=O)c1ccc(Oc2ccc(F)cc2)cc1 [Compound 46B]
% ID/G Carotid, mean [1, 3]: 0.88 % ID/G
Carotid/Blood, mean [1, 3]: 0.42
Carotid/Heart, mean [1, 3]: 0.49
Carotid/Lung, mean [1, 3]: 0.35
% ID/G Carotid, mean [1, 4]: 0.44 % ID/G
Carotid/Blood, mean [1, 4]: 0.61
Carotid/Heart, mean [1, 4]: 1.11
Carotid/Lung, mean [1, 4]: 0.53
% ID Urinary (urinary excretion), mean ([2]; 5 min post injection): 6.60 % ID
% ID/g Tumour, mean ([2]; 5 min post injection): 0.42 % ID/g
Tumour/Blood, mean ([2]; 5 min post injection): 0.18
Tumour/Heart, mean ([2]; 5 min post injection): 0.37
Tumour/Lung, mean ([2]; 5 min post injection): 0.21
Tumour/Muscle, mean ([2]; 5 min post injection): 1.16
% ID Urinary (urinary excretion), mean ([2]; 30 min post injection): 12.00 % ID
% ID/g Tumour, mean ([2]; 30 min post injection): 0.53 % ID/g
Tumour/Blood, mean ([2]; 30 min post injection): 0.47
Tumour/Heart, mean ([2]; 30 min post injection): 1.15
Tumour/Lung, mean ([2]; 30 min post injection): 0.55
Tumour/Muscle, mean ([2]; 30 min post injection): 2.06
% ID Urinary (urinary excretion), mean ([2]; 60 min post injection): 15.02 % ID
% ID/g Tumour, mean ([2]; 60 min post injection): 0.32 % ID/g
Tumour/Blood, mean ([2]; 60 min post injection): 0.73
Tumour/Heart, mean ([2]; 60 min post injection): 1.54
Tumour/Lung, mean ([2]; 60 min post injection): 0.60
Tumour/Muscle, mean ([2]; 60 min post injection): 2.02
% ID Urinary (urinary excretion), mean ([2]; 120 min post injection): 19.68 % ID
% ID/g Tumour, mean ([2]; 120 min post injection): 0.31 % ID/g
Tumour/Blood, mean ([2]; 120 min post injection): 0.73
Tumour/Heart, mean ([2]; 120 min post injection): 1.33
Tumour/Lung, mean ([2]; 120 min post injection): 0.80
Tumour/Muscle, mean ([2]; 120 min post injection): 1.81
